This is an account of results in patent publication US20040043403A1, “Process for determining the biological activity of epidermal growth factor receptor tyrosine kinase inhibitors” (priority 2000, published 2004).

Holding throughout (assay type): cell-based, human
In one test the test system is NCI-H520. Description: Real time RT-PCR gene expression in NCI-H520 cells. As to conditions: NCI-H520, 3 μM, 24 h; relative to DMSO-treated NCI-H520 calibrator. On the procedure:
20 million tissue culture cells (about 80% confluent) or 200 million WBCs are incubated for 2 or 24 h in culture medium containing 3 μM of an EGFR tyrosine kinase inhibitor or 0.03% DMSO. Total RNA from cell pellet is isolated using the RNeasy kit (Qiagen). mRNA is isolated using the oligotex mRNA purification kit (Qiagen). The quality of the obtained mRNA is tested by real time RT-PCR using beta-Actin primers (PE Applied Biosystems) with an amplicon size of 300 base pairs (bp). The total RNA is used as a reference to calculate the amount of mRNA-enrichment in the oligotex purified samples. The primers and probes are designed from mRNA sequences within the coding region or in the 3′ untranslated region (Table 2). For real time RT-PCR, RNA concentrations between 1 and 50 ng/reaction are used to obtain signals between 15-35 cycles. For each RNA preparation RT-PCR reactions are performed with and without reverse transcriptase to check for genomic DNA contamination. In all RNA samples tested, genomic DNA contamination is less than 1%. To normalize for variability in the initial concentration and quality of the total RNA, Glyceraldehyde-3-phosphate dehydrogenase (GAPDH) is used as an endogenous reference in all quantification experiments. For RT-PCR a one step, two-enzyme system is chosen. The TaqMan PCR Core Reagent Kit (PE #N808-0228) plus the reverse transcriptase MuLV (PE Biosystems # N808-0018) and RNase inhibitor (Roche Diagnostics # 799 025) are mixed as described in the manufacturers protocol. Triplicate measurements are done for target and for reference reactions. […] RT-PCR reactions are done with RNA concentrations of 2.5, 5, 10, 20, 40 and 80 ng per reaction. […] The ΔCT value is determined by subtracting the average reference CT values from the average target CT values of the three measurements. Relative quantification is performed in triplicates, reference and target, using the RT-PCR protocol described above. […] Expression levels for the three genes, calculated relative to NCI-H520, show big differences between the various cell types (Table 5). […]
On the technique in general: Quantitative PCR measures a nucleic acid by following its amplification.

A further test deals with MDA-MB468. As to the kind of experiment: Western blot of clusterin induction in MDA-MB468 cells. As to conditions: MDA-MB468 cells (high levels of EGFR), 300 nM, 24 h, vs 0.03% DMSO. On the procedure: (§1) An EGFR tyrosine kinase inhibitor is dissolved in DMSO to obtain a 10 mM stock solution. The stock solution is further diluted in culture medium to final concentrations of 10 nM to 3 μM. 3.5 million cells/100 mm dish/12 ml culture medium are incubated for 24 h in 5% CO2 at 37° C. The medium is replaced with medium containing the EGFR tyrosine kinase inhibitor or DMSO. Cells are incubated for 4 to 32 h. The frozen pellets are lysed in 500 μl of lysis buffer (50 mM Tris-HCl pH 7.5, 1% Sodium Dodecyl Sulfate (SDS)). To shear genomic DNA, the cell lysates are processed in a FastPrep instrument for 20 sec at a speed rating of 4, using the green […] tubes (Bio101#6040-6010). Protein concentrations are determined according to the PIERCE-method (BCA Protein Assay, Reagent A and B). Protein concentration of lysates is adjusted to 1 μg/μl with lysis buffer. 4 parts of cell lysates are mixed with 1 part of 5 fold concentrated Laemmli buffer, the lysates are stored at -20° C. 40 μl of cell lysate is heated for 3 min to 95° C. and directly loaded on to 10% or 15% SDS-PAGE gels. The gels are run at 130 V for 90 min under standard conditions. The separated proteins are semi-dry blotted on to a PVDF membrane (Immobilon-P, Millipore #IPVH 202 00) for 70 min with 45 mA per blot. […]
For orientation: In western blotting, separated proteins are transferred to a membrane and probed.

In another test the test system is NCI-H596. As to the kind of experiment: Western blot of clusterin induction in NCI-H596 cells. As to conditions: NCI-H596 cells (moderate levels of EGFR), 300 nM, 24 h, vs 0.03% DMSO. On the procedure: as §1
In another test the test system is A431 cells. As to the kind of experiment: Western blot of clusterin induction in A431 cells. On the procedure: as §1, with “blot. Immediately after the transfer the blots are incubated in Blotto A (5% skim milk powder in Tris Buffered Saline (TBS)/0.05% Tween-20) for 1 h at room temperature on a rotating platform. The blots are then washed three times in TBS/0.05% Tween-20. The blots are incubated […] with 0.2 μg/ml of e.g. goat anti-human clusterin (C-18) antibody (Santa Cruz, sc-6419) in Blotto A for 1.5 h at room temperature on a rotating platform. The control blots are incubated with 0.2 μg/ml of mouse anti-human-actin (C-2) antibody (Santa Cruz, sc-8432). The blots are washed three times with TBS/0.05% Tween-20.” for “blot.”

`C[C@@H](Nc1ncnc2[nH]c(-c3ccc(O)cc3)cc12)c1ccccc1` [COMPOUND A, (R)-6-(4-hydroxy-phenyl)-4-[(1-phenyl-ethyl)-amino]-7H-pyrrolo[2,3-d]pyrimidine]: the “Relative Clusterin expression” value in the test with NCI-H520 was 0.61 n-fold. The “Relative TRAIL expression” value in the test on NCI-H520 is 0.39 n-fold. Also, in the test with NCI-H520, the “Relative VAC-beta expression” value was determined as 0.75 n-fold. The “Clusterin induction, Western blot (FIG. 4)” value is “strong clusterin expression signals” in the test with MDA-MB468; “no significant clusterin induction” in the test with NCI-H596; “strong clusterin expression signals” with A431 cells (A431 cells (high levels of EGFR), 300 nM, 24 h, vs 0.03% DMSO). Further, the “Concentration at which the 43 kDa clusterin signals reach a maximum (FIG. 2)” value in the test on A431 cells (A431 cells, 10 nM to 1 μM, 24 h, signals increase with concentration) turned out to be 300 nM. The “Time course of clusterin protein induction (FIG. 3)” value with A431 cells (A431 cells, 300 nM, 4, 8, 16, 24 and 32 h) is reported as “continuous increase of clusterin signal from 16 h to 32 h”.
